Laboratory results as given in article PMC7026418, “The kinase polypharmacology landscape of clinical PARP inhibitors” (Scientific Reports, 2020).
Like-named read-outs stand apart in the source and are kept apart here.

Experiments:
Assay in all cases: biochemical
Set-up in all cases: DiscoveRx KINOMEscan active site-directed competition binding; percent of control kinase bound to immobilised ligand
[1] = biological target: T1, ABL1(T315I)-phosphorylated (Homo sapiens, UniProt P00519, T315I)
T1 construct: phosphorylated

[2] = biological target: T2, CAMK1B (Homo sapiens, UniProt Q6P2M8)
T2 construct: gene PNCK
T2 sequence (Q6P2M8 whole entry): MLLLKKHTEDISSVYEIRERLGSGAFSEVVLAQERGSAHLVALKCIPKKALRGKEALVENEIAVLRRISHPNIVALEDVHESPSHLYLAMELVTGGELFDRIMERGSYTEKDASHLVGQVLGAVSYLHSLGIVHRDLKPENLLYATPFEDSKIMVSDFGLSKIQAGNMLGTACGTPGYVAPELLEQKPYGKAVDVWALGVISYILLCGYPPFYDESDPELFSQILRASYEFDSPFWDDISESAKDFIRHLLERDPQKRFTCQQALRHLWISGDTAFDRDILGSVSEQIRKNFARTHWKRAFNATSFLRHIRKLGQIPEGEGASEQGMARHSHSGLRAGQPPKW

[3] = biological target: T3, CSNK1A1L (Homo sapiens, UniProt Q8N752)
T3 sequence (Q8N752 1-337): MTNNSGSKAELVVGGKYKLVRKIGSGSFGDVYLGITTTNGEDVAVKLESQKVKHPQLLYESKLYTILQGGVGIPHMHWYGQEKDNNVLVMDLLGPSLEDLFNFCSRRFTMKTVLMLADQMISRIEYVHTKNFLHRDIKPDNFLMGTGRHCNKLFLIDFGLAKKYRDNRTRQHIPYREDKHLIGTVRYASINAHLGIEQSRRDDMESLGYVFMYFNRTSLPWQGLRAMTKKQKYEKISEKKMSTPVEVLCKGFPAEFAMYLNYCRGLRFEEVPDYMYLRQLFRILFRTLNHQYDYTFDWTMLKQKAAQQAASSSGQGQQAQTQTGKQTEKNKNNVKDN

[4] = biological target: T4, LZK (Homo sapiens, UniProt O43283)
T4 construct: gene MAP3K13
T4 sequence (O43283 1-966): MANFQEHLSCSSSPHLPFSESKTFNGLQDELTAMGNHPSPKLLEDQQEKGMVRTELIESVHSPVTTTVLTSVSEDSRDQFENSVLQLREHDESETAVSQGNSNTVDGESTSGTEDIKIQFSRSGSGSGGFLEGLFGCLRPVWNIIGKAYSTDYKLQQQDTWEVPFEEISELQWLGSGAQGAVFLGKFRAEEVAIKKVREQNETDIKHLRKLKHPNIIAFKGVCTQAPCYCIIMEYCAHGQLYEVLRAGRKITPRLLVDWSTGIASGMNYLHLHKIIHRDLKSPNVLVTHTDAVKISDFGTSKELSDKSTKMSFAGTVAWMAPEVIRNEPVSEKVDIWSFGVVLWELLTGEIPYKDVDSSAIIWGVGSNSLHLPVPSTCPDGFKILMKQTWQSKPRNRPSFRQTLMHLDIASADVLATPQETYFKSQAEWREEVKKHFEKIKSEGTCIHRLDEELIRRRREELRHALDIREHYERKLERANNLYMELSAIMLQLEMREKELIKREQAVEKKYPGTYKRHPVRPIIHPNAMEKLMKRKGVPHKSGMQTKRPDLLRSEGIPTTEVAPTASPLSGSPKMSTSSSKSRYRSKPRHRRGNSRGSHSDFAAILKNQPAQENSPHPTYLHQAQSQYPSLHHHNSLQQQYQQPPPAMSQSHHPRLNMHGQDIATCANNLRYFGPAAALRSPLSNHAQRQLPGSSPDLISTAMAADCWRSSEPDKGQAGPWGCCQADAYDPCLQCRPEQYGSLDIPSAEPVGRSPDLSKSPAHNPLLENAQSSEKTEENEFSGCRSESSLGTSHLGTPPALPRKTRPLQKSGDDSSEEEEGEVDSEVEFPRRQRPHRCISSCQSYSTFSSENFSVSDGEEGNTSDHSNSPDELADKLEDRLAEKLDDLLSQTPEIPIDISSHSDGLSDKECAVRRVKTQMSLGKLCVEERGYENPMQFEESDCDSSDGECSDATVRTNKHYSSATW

[5] = biological target: T5, MEK4 (Homo sapiens, UniProt P45985)
T5 construct: gene MAP2K4
T5 sequence (P45985 1-399): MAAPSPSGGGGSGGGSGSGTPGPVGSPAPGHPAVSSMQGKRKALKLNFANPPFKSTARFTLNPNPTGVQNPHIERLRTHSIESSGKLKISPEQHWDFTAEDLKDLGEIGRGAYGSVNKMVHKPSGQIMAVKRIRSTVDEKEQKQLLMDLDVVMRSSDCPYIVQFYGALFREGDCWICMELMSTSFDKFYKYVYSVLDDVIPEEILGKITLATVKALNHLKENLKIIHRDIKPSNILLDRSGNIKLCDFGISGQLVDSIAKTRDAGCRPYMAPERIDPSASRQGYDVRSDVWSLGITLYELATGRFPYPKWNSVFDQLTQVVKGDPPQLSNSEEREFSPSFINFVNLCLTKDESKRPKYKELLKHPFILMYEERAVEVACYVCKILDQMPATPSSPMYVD

[6] = biological target: PIK3CA(E545K) (Homo sapiens, UniProt P42336, E545K)
PIK3CA(E545K), sequence (P42336 whole entry E545K): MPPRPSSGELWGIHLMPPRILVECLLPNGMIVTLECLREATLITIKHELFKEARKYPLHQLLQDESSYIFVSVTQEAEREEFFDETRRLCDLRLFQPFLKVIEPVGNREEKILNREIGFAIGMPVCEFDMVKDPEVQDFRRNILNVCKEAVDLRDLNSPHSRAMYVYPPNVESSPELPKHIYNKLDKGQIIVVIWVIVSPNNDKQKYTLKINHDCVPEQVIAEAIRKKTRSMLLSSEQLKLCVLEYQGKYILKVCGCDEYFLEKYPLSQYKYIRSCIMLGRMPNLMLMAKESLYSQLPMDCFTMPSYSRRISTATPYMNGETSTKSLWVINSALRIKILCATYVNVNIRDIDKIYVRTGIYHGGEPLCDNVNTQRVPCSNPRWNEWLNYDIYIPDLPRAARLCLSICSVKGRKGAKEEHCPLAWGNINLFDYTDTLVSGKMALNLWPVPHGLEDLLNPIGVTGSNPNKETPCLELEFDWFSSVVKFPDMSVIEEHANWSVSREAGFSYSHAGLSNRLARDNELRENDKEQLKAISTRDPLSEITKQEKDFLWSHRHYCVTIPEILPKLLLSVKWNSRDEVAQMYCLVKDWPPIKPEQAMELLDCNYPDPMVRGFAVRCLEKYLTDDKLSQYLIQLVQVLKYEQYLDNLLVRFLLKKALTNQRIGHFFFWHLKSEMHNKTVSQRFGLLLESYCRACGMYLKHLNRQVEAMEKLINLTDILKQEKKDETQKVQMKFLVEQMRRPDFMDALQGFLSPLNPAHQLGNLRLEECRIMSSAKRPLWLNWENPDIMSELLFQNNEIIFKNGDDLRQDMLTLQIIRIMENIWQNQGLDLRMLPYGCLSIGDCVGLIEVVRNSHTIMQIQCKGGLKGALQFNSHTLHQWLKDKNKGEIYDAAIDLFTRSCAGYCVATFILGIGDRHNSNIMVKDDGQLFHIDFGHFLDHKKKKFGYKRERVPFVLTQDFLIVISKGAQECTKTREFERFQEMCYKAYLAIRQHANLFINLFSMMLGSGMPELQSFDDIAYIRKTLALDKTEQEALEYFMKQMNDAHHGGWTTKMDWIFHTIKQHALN

[7] = biological target: PLK3 (Homo sapiens, UniProt Q9H4B4)
PLK3, sequence (Q9H4B4 whole entry): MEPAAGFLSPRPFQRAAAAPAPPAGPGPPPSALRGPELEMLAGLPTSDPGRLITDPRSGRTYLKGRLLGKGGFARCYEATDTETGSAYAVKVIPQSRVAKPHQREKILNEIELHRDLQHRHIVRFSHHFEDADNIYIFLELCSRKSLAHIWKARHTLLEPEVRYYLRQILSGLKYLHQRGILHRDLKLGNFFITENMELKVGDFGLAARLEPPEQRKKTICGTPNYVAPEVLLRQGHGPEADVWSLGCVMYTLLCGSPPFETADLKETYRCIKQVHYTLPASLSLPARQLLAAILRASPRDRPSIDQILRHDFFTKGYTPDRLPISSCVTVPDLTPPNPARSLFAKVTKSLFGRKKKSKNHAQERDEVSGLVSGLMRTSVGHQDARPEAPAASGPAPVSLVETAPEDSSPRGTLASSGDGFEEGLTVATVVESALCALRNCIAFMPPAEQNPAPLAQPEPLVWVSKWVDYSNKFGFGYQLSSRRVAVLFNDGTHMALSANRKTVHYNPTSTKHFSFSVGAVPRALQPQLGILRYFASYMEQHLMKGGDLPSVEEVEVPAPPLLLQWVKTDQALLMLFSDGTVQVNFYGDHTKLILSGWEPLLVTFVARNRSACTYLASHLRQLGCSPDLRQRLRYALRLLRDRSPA

[8] = biological target: T6, PRKR (Homo sapiens, UniProt P19525)
T6 construct: gene EIF2AK2
T6 sequence (P19525 whole entry): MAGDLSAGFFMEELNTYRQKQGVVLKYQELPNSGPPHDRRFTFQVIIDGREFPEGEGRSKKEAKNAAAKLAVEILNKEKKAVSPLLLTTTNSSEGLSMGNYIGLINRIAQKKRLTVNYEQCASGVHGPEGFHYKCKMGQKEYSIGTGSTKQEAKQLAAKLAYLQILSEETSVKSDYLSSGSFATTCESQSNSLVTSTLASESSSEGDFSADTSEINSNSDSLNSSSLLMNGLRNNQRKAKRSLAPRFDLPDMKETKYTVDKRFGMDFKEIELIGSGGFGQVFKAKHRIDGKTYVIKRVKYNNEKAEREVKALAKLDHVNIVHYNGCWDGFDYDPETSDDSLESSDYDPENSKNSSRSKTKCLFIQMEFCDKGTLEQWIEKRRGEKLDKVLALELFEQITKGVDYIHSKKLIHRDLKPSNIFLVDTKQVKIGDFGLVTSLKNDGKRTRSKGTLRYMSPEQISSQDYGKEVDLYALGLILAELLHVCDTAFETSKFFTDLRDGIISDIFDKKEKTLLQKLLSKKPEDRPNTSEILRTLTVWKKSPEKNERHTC

[9] = biological target: SIK2 (Homo sapiens, UniProt Q9H0K1)
[10] = biological target: WEE2 (Homo sapiens, UniProt P0C1S8)
WEE2, sequence (P0C1S8 whole entry): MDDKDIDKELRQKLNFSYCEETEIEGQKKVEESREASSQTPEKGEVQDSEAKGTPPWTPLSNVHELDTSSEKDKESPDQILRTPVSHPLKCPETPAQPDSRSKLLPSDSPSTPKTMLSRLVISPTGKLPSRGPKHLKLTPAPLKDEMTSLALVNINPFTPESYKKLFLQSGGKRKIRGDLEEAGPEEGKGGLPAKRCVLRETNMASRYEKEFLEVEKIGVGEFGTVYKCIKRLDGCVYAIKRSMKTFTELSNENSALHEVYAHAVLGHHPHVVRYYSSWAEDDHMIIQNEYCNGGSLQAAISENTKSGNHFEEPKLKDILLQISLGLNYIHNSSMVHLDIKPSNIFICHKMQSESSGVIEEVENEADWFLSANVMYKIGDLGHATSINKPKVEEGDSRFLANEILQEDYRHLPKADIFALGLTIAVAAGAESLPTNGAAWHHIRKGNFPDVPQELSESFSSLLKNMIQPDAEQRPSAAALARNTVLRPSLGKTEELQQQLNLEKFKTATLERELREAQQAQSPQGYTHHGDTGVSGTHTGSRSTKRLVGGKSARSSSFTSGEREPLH

[11] = biological target: WNK4 (Homo sapiens, UniProt Q96J92)
WNK4, sequence (Q96J92 whole entry): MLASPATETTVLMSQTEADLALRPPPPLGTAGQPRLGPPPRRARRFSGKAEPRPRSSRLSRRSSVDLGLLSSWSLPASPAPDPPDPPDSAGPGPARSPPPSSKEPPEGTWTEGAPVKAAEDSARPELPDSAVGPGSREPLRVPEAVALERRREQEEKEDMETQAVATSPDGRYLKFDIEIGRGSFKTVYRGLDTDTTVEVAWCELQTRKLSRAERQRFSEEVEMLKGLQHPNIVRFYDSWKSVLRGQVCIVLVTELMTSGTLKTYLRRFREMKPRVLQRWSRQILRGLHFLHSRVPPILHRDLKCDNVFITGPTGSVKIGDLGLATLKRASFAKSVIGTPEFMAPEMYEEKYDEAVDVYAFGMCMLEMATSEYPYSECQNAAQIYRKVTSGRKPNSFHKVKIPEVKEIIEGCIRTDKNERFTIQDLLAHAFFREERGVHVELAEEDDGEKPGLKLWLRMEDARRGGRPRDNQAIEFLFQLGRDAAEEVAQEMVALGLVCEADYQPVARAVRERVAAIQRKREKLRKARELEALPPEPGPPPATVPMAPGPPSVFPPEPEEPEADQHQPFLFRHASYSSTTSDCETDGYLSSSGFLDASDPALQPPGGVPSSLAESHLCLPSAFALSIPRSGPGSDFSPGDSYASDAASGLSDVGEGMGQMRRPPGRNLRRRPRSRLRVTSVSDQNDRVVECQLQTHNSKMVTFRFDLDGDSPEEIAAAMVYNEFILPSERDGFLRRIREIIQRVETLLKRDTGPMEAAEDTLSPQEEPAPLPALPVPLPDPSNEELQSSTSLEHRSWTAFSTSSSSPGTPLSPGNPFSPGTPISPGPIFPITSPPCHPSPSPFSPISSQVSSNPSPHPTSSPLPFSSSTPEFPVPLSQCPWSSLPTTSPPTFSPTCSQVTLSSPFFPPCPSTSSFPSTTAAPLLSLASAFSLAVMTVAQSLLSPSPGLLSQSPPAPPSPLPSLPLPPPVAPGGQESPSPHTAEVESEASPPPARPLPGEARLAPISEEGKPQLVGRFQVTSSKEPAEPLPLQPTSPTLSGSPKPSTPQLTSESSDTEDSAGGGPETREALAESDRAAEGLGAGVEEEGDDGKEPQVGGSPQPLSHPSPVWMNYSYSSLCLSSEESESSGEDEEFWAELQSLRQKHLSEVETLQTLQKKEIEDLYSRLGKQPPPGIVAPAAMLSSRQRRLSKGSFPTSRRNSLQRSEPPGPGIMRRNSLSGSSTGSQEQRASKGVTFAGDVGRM

[12] = biological target: T7, YANK2 (Homo sapiens, UniProt Q9NY57)
T7 construct: gene STK32B
T7 sequence (Q9NY57 whole entry): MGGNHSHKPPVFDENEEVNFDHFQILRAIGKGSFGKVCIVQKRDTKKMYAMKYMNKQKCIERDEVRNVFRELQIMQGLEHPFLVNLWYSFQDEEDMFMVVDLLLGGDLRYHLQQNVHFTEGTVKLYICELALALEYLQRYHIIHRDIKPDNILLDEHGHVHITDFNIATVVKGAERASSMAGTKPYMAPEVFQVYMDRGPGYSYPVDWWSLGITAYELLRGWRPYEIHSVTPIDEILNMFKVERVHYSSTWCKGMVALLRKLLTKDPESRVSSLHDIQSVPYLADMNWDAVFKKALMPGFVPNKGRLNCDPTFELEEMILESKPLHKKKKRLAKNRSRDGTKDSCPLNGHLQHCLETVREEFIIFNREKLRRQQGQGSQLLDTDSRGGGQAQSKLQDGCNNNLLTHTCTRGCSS

[13] = read-out: Talazoparib (BMN 673) / %Ctrl @ 10000nM
[14] = read-out: Olaparib / %Ctrl @ 10000nM
[15] = read-out: Rucaparib / %Ctrl @ 10000nM, binding competition, % of control
[16] = read-out: Niraparib (MK-4827) / %Ctrl @ 10000nM

`Cn1ncnc1[C@H]1c2n[nH]c(=O)c3cc(F)cc(c23)N[C@@H]1c1ccc(F)cc1` [Talazoparib] was tested, and the percent of control binding at 10 µM [1, 13] was 100%, the percent of control binding at 10 µM [2, 13] was 100% and the percent of control binding at 10 µM [3, 13] was 100%. For the same compound, the percent of control binding at 10 µM [4, 13] was 100%, the percent of control binding at 10 µM [5, 13] was 99% and the percent of control binding at 10 µM [6, 13] was 56%. It also gave a percent of control binding at 10 µM [7, 13] of 90%, a percent of control binding at 10 µM [8, 13] of 78% and a percent of control binding at 10 µM [9, 13] of 100%. It also gave a percent of control binding at 10 µM [10, 13] of 100%, a percent of control binding at 10 µM [11, 13] of 100% and a percent of control binding at 10 µM [12, 13] of 91%.
With `O=C(c1cc(Cc2n[nH]c(=O)c3ccccc23)ccc1F)N1CCN(C(=O)C2CC2)CC1` [Olaparib] the percent of control binding at 10 µM [1, 14] was 87%, the percent of control binding at 10 µM [2, 14] was 97% and the percent of control binding at 10 µM [3, 14] was 99%. It also gave a percent of control binding at 10 µM [4, 14] of 100%, a percent of control binding at 10 µM [5, 14] of 80% and a percent of control binding at 10 µM [6, 14] of 86%. The percent of control binding at 10 µM [7, 14] was 98%, the percent of control binding at 10 µM [8, 14] was 94% and the percent of control binding at 10 µM [9, 14] was 100%. For the same compound, the percent of control binding at 10 µM [10, 14] was 100%, the percent of control binding at 10 µM [11, 14] was 100% and the percent of control binding at 10 µM [12, 14] was 94%.
Work on `CNCc1ccc(-c2[nH]c3cc(F)cc4c3c2CCNC4=O)cc1` [Rucaparib] yielded a percent of control binding at 10 µM [1, 15] of 67%, a percent of control binding at 10 µM [2, 15] of 100% and a percent of control binding at 10 µM [3, 15] of 86%. For the same compound, the percent of control binding at 10 µM [4, 15] was 100%, the percent of control binding at 10 µM [5, 15] was 69% and the percent of control binding at 10 µM [6, 15] was 79%. For the same compound, the percent of control binding at 10 µM [7, 15] was 60%, the percent of control binding at 10 µM [8, 15] was 76% and the percent of control binding at 10 µM [9, 15] was 96%. The percent of control binding at 10 µM [10, 15] was 100%, the percent of control binding at 10 µM [11, 15] was 97% and the percent of control binding at 10 µM [12, 15] was 100%.
Work on `NC(=O)c1cccc2cn(-c3ccc([C@@H]4CCCNC4)cc3)nc12` [Niraparib] yielded a percent of control binding at 10 µM [1, 16] of 95%, a percent of control binding at 10 µM [2, 16] of 94% and a percent of control binding at 10 µM [3, 16] of 76%. The percent of control binding at 10 µM [4, 16] was 96%, the percent of control binding at 10 µM [5, 16] was 82% and the percent of control binding at 10 µM [6, 16] was 95%. It also gave a percent of control binding at 10 µM [7, 16] of 85%, a percent of control binding at 10 µM [8, 16] of 91% and a percent of control binding at 10 µM [9, 16] of 91%. The percent of control binding at 10 µM [10, 16] was 100%, the percent of control binding at 10 µM [11, 16] was 100% and the percent of control binding at 10 µM [12, 16] was 100%.
